Where only a bound is given, the exact number is not on record here.

The target in this test is Metabotropic glutamate receptor 3 (Homo sapiens, UniProt Q14832). Briefly: Positive allosteric modulation of human mGluR3 expressed in HEK293 cells assessed as increase in glutamate-induced calcium mobilization preincubated for 10 mins followed by glutamate addition and measured for 3 mins by Fluo4-AM dye based FLIPR assay. The format is functional, cell-based. On the technique in general: A change in cytosolic calcium serves as a functional read-out for many receptors and channels.
Chain of Metabotropic glutamate receptor 3 (Q14832 whole entry): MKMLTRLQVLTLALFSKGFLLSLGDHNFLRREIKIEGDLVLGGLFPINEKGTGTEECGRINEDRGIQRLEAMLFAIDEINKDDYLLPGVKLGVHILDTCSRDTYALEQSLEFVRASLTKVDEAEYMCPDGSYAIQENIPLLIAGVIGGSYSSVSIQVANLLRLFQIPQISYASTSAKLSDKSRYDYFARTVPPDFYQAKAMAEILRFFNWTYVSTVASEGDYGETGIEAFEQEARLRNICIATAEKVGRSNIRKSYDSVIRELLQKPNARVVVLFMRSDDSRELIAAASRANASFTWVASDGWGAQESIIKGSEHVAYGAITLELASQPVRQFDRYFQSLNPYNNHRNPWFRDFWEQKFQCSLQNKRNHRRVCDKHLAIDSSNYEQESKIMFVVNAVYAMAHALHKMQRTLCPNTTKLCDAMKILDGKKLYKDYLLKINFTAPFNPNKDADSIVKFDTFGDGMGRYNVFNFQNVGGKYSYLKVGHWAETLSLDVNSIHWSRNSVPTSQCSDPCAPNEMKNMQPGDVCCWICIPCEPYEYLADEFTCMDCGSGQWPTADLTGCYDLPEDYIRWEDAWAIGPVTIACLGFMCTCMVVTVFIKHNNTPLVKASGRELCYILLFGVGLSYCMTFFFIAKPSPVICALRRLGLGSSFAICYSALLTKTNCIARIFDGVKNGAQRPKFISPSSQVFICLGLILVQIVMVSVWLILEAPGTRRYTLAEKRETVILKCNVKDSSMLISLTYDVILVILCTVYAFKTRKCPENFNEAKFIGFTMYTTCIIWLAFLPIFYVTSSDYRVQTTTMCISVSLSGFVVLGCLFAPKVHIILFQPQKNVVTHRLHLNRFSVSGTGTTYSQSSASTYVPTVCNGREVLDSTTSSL
For the molecule `CN1C(=O)c2ncccc2-c2cc(-c3ccc(F)nc3)ccc2C12CC2`, the EC50 was less than 100 nM.

In the case of `COc1ccc2c(n1)C(=O)N(C)Cc1ccc(-c3ccc(F)nc3)cc1-2`, the EC50 was less than 100 nM.

`CN1C(=O)c2ncccc2-c2cc(-c3ccc(F)cn3)ccc2C12CC2`: the concentration giving a half-maximal response (EC50) is less than 100 nM.

Consider `COc1ccc2c(n1)C(=O)N(C)C1(CC1)c1ccc(-c3ccc(F)nc3)cc1-2`, for which the EC50 was less than 100 nM.

Consider `COCn1cc2c(n1)C(=O)N(C)C1(CC1)c1ccc(-c3ccc(F)nc3)cc1-2`, for which the EC50 is less than 100 nM.

As to `CN1C(=O)c2cccn2-c2cc(-c3ccc(F)nc3)ccc2C12CCC2`, the concentration giving a half-maximal response (EC50) was less than 100 nM.

`COCn1cc2c(n1)C(=O)N(C)Cc1ccc(-c3ccc(F)cn3)cc1-2`: the concentration giving a half-maximal response (EC50) fell in the range of 100 to 1000 nM.

As for `CCn1cc2c(n1)C(=O)N(C)Cc1ccc(-c3cccnc3C)cc1-2`, the EC50 lay in the range of 100 to 1000 nM.

As usually defined, the EC50 is the concentration giving half of the maximal effect.

The record behind these values is ChEMBL document CHEMBL4330174, “Allosteric mGluR3 Modulators for the Treatment of Psychiatric Disorders” (ACS Med Chem Lett, 2019).
